Experimental data published in patent publication US10392422B2, “Macrocyclic broad spectrum antibiotics” (priority 2014, dated 2019).
Values after ≈ are worked out from the molar mass of the structure shown. Read-outs that look alike come from different tables or passages of the source.

Tests used:
Experiment in all cases: MIC, broth micro-dilution technique (CLSI)
MRSA COL (NRS100) = type: cell-based, Staphylococcus aureus; settings: for MIC: Staphylococcus aureus, 22 h, read-out: MIC (μg/mL) (COL); for MIC (μg/mL) (COL): Table 2 modified protocol: serial 2-fold dilutions starting from 4 μg/mL
Procedure: In vitro antimicrobial activity of each compound was determined by measuring minimal inhibitor concentrations (MICs) using the broth micro-dilution technique as approved by the Clinical and Laboratory Standards Institute (CLSI) (Methods for Dilution Antimicrobial Susceptibility Tests for Bacteria that Grow Aerobically; Approved Standard—Eighth Edition. CLSI document M07-A8. Wayne, Pa.: Clinical and Laboratory Standards; 2009). Antibacterial activity was measured against three strains of bacteria: a Methicillin Resistant Staphylococcus aureus strain USA 300 (NRS384); a MRSA COL (NRS100), another Methicillin Resistant Staphylococcus aureus strain; and a strain of Escherichia coli MC4100 harboring the IMP4213, which results in increased outer-membrane permeability (B Martin and Silhavy T. Imp/OstA is required for cell envelope biogenesis in Escherichia coli. (2002) Molecular Microbiology, 45(5), 1289-1302). Cells were inoculated onto plates of Trypyticase Soy Agar or Luria Agar respectively and grown at 35° C. for 20 hours. Inocula suspensions were prepared by scraping cells into 1 ml of testing media (cation adjusted Mueller Hinton Broth supplemented with 0.002% v/v Tween-80) and diluting to a final OD600 nm of 0.01.
Test compounds were prepared in DMSO at a concentration of 10 mg/ml. These compound stocks were diluted into testing media at a concentration of 64 μg/ml and serial 2-fold dilutions were made in the same media, in 96-well U bottom microtiter dishes, for a total of 10 compound concentrations (Table 1). In modified protocols (Table 2), compound stocks were diluted into testing media at a concentration of 4 μg/mL and serial 2-fold dilutions were made in the same media, in 96-well U bottom microtiter dishes, for a total of 10 compound concentrations. Inocula suspensions were added to the 2-fold serial dilutions of test compounds to a final density of OD OD600 nm of 0.0005 and incubated at 35° C. for 22 hours. […] The results from the protocol starting from a concentration of 64 µg/mL are listed in Table 1 and the results from the modified protocol are shown in Table 2.

[1] = tested on: Methicillin Resistant Staphylococcus aureus strain USA 300 (NRS384); type: cell-based; settings: for MIC: Staphylococcus aureus, 22 h, read-out: MIC (μg/mL) S. aureus; for MIC (μg/mL) S. aureus: Table 2 modified protocol: serial 2-fold dilutions starting from 4 μg/mL
Procedure, shortened: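 CLSI broth microdilution in cation-adjusted Mueller Hinton broth with 0.002% v/v Tween-80. Compounds were serially 2-fold diluted over 10 concentrations from 64 μg/ml, or from 4 μg/mL in a modified protocol; inoculum at final OD600 0.0005, incubated 35° C for 22 hours.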

[2] = tested on: Escherichia coli MC4100 harboring the IMP4213; type: cell-based; settings: 35° C., 22 hours; for MIC: Escherichia coli, 22 h; for MIC (μg/mL) E. coli: Table 2 modified protocol: serial 2-fold dilutions starting from 4 μg/mL
Procedure, shortened: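 Cation-adjusted MHB + 0.002% Tween-80; 10-point 2-fold series starting 64 μg/ml (modified protocol: 4 μg/mL). Final inoculum OD600 0.0005; 35° C, 22 h. MIC per CLSI M07-A8 broth microdilution.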

[3] = Table 1 protocol: serial 2-fold dilutions starting from 64 μg/ml, 35° C., 22 hours
[4] = read-out: MIC (μg/mL) E. coli, Table 1 protocol: serial 2-fold dilutions starting from 64 μg/ml
[5] = read-out: MIC (μg/mL) E. coli, Table 2 modified protocol: serial 2-fold dilutions starting from 4 μg/mL

SMILES | MIC (MRSA COL (NRS100); [3]) [µg/mL] | MIC [1, 3] [µg/mL] | MIC [2, 4] [µg/mL] | MIC (MRSA COL (NRS100)) [µg/mL] | MIC [1] [µg/mL] | further results
COC(=O)CC(=O)[C@H](C)NC(=O)[C@@H]1Cc2ccc(O)c(c2)-c2cc(ccc2O)[C@H](N(C)C(=O)[C@H](CCCCN)NC(=O)c2ccc(-c3ccc(Cl)cc3)cc2)C(=O)N[C@@H](C)C(=O)N1 [Compound 191] | 8 (≈ 9.06 µM) | 32 (≈ 36.2 µM) | > 64 | – | – | –
CCCCCCCCCNCCCS(=O)(=O)N[C@@H](CCCCN)C(=O)N(C)[C@@H]1C(=O)N[C@@H](C)C(=O)N[C@H](C(=O)N[C@@H](C)C(C)=O)Cc2ccc(O)c(c2)-c2cc1ccc2O [Compound 217] | 0.75 (≈ 0.874 µM) | 2 (≈ 2.33 µM) | > 64 | – | – | –
CCCCc1ccc(-c2ccc(C(=O)N[C@@H](CCCN)C(=O)N(C)[C@@H]3C(=O)N[C@@H](C)C(=O)N[C@H](CO)Cc4ccc(OCCN)c(c4)-c4cc3ccc4OCCN)cc2)cc1 [Compound 336] | – | – | – | 0.13 (≈ 0.155 µM) | 0.5 (≈ 0.598 µM) | MIC [2, 5]: 0.25 µg/mL (≈ 0.299 µM)
C[C@H](NC(=O)[C@@H]1Cc2ccc(O)c(c2)-c2cc(ccc2O)[C@H](N(C)C(=O)[C@H](CCCCN)NC(=O)c2ccc(-c3ccc(Cl)cc3)cc2)C(=O)N[C@@H](C)C(=O)N1)B1O[C@@H]2C[C@@H]3C[C@@H](C3(C)C)[C@]2(C)O1 [Compound 133] | – | – | 2 (≈ 2.08 µM) | 1.5 (≈ 1.56 µM) | 2.5 (≈ 2.6 µM) | –
C[C@H](NC(=O)[C@@H]1Cc2ccc(OCCN)c(c2)-c2cc(ccc2OCCN)[C@H](N(C)C(=O)[C@H](CCCCN)NC(=O)c2ccc(-c3ccc(Cl)cc3)cc2)C(=O)N[C@@H](C)C(=O)N1)B1O[C@@H]2C[C@@H]3C[C@@H](C3(C)C)[C@]2(C)O1 [Compound 310] | – | – | 0.19 (≈ 0.181 µM) | 0.094 (≈ 0.0897 µM) | 0.5 (≈ 0.477 µM) | –
CCCCCCCCS(=O)(=O)N[C@@H](CO)C(=O)N(C)[C@@H]1C(=O)N[C@@H](C)C(=O)N[C@H](C(=O)N[C@@H](C)C(C)=O)Cc2ccc(OCCN)c(c2)-c2cc1ccc2OCCN.O=CO [Compound 259] | – | – | – | – | – | MIC (μg/mL) (COL) (MRSA COL (NRS100); 35° C., 22 hours): 0.38 µg/mL; MIC (μg/mL) S. aureus ([1]; 35° C., 22 hours): 0.75 µg/mL; MIC (μg/mL) E. coli [2]: >4 µg/mL
CCCCCCCCc1ccc(C(=O)N[C@@H](CCCN)C(=O)N(C)[C@@H]2C(=O)N[C@@H](C)C(=O)N[C@H](C(=O)O)Cc3ccc(OCCN)c(c3)-c3cc2ccc3OCCN)c(C)c1 [Compound 296] | – | – | 0.063 (≈ 0.0746 µM) | 0.063 (≈ 0.0746 µM) | 0.063 (≈ 0.0746 µM) | –
CCCCCCCCCCNCCS(=O)(=O)N[C@@H](CCN)C(=O)N(C)[C@@H]1C(=O)N[C@@H](C)C(=O)N[C@H](C(=O)N[C@@H](C)C(C)=O)Cc2ccc(O)c(c2)-c2cc1ccc2O [Compound 218] | – | – | > 64 | 0.13 (≈ 0.157 µM) | 0.35 (≈ 0.422 µM) | –
CC(=O)OCC(=O)[C@H](C)NC(=O)[C@@H]1Cc2ccc(O)c(c2)-c2cc(ccc2OCCN)[C@H](N(C)C(=O)[C@H](CCCCN)NC(=O)c2ccc(-c3ccc(Cl)cc3)cc2)C(=O)N[C@@H](C)C(=O)N1 [Compound 117] | – | – | 1.6 (≈ 1.73 µM) | 0.22 (≈ 0.237 µM) | 0.71 (≈ 0.766 µM) | –
CCCCc1ccc(-c2ccc(C(=O)N[C@@H](CCCN)C(=O)N(C)[C@@H]3C(=O)N[C@@H](C)C(=O)N[C@H](C(=O)NS(C)(=O)=O)Cc4ccc(OCCN)c(c4)-c4cc3ccc4OCCN)cc2)cc1 [Compound 337] | – | – | – | 0.75 (≈ 0.809 µM) | 2 (≈ 2.16 µM) | MIC [2, 5]: 0.047 µg/mL (≈ 0.0507 µM)
CC(=O)[C@H](C)NC(=O)[C@@H]1Cc2ccc(O)c(c2)-c2cc(ccc2OCC(=O)O)[C@H](N(C)C(=O)[C@H](CCCCN)NC(=O)c2ccc(-c3ccc(Cl)cc3)cc2)C(=O)N[C@@H](C)C(=O)N1 [Compound 120] | – | – | 64 (≈ 72.4 µM) | 13 (≈ 14.7 µM) | 51 (≈ 57.7 µM) | –
CNC(=O)C(=O)CNC(=O)[C@@H]1Cc2ccc(O)c(c2)-c2cc(ccc2O)[C@H](N(C)C(=O)[C@H](CCCCN)NC(=O)c2ccc(-c3ccc(Cl)cc3)cc2)C(=O)N[C@@H](C)C(=O)N1 [Compound 238] | 8 (≈ 9.36 µM) | 32 (≈ 37.5 µM) | 64 (≈ 74.9 µM) | – | – | –
COCC(=O)[C@H](C)NC(=O)[C@@H]1Cc2ccc(O)c(c2)-c2cc(ccc2OCCN)[C@H](N(C)C(=O)[C@H](CCCCN)NC(=O)c2ccc(-c3ccc(Cl)cc3)cc2)C(=O)N[C@@H](C)C(=O)N1 [Compound 195] | 0.38 (≈ 0.423 µM) | 2.8 (≈ 3.12 µM) | 2 (≈ 2.23 µM) | – | – | –
C[C@H](NC(=O)[C@@H]1Cc2ccc(O)c(c2)-c2cc(ccc2O)[C@H](N(C)C(=O)[C@H](CCCCN)NC(=O)c2ccc(-c3ccc(Cl)cc3)cc2)C(=O)N[C@@H](C)C(=O)N1)C(=O)CNS(C)(=O)=O [Compound 162] | – | – | 32 (≈ 34.8 µM) | 2 (≈ 2.18 µM) | 8 (≈ 8.71 µM) | –
CCCCCCCCCCCCS(=O)(=O)N[C@@H](CCCCN)C(=O)N(C)[C@@H]1C(=O)N[C@@H](C)C(=O)N[C@H](C(=O)N[C@@H](C)C(C)=O)Cc2ccc(O)c(c2)-c2cc1ccc2O [Compound 221] | 0.13 (≈ 0.154 µM) | 0.5 (≈ 0.593 µM) | 45 (≈ 53.4 µM) | – | – | –
C[C@@H]1NC(=O)[C@@H](N(C)C(=O)[C@H](CCCCN)NC(=O)c2ccc(/C=C/c3ccccc3)cc2)c2ccc(OCCN)c(c2)-c2cc(ccc2OCCN)C[C@@H](C(=O)O)NC1=O [Compound 281] | – | – | – | 1 (≈ 1.2 µM) | 3 (≈ 3.6 µM) | MIC [2, 5]: 0.25 µg/mL (≈ 0.3 µM)
C[C@H](NC(=O)[C@@H]1Cc2ccc(O)c(c2)-c2cc(ccc2O)[C@H](N(C)C(=O)[C@H](CCCCN)NC(=O)c2ccc(-c3ccc(Cl)cc3)cc2)C(=O)N[C@@H](C)C(=O)N1)C(=O)CCc1c[nH]cn1 [Compound 132] | 8 (≈ 8.84 µM) | 32 (≈ 35.3 µM) | > 64 | – | – | –
C[C@@H]1NC(=O)[C@@H](N(C)C(=O)[C@H](CCCCN)NC(=O)c2ccc(-c3ccc(Cl)cc3)cc2)c2ccc(O)c(c2)-c2cc(ccc2O)C[C@@H](C(=O)N[C@@H](C)C(=O)c2c[nH]cn2)NC1=O [Compound 229] | 1 (≈ 1.14 µM) | 4 (≈ 4.56 µM) | 24 (≈ 27.4 µM) | – | – | –
CCCCCCCCCC(=O)N[C@@H](CO)C(=O)N(C)[C@@H]1C(=O)N[C@@H](C)C(=O)N[C@H](C(=O)N[C@@H](C)C(C)=O)Cc2ccc(OCCN)c(c2)-c2cc1ccc2OCCN.O=CO [Compound 264] | – | – | – | – | – | MIC (μg/mL) (COL) (MRSA COL (NRS100); 35° C., 22 hours): 0.75 µg/mL; MIC (μg/mL) S. aureus ([1]; 35° C., 22 hours): 2 µg/mL; MIC (μg/mL) E. coli [2]: >4 µg/mL
C[C@H](NC(=O)[C@@H]1Cc2ccc(O)c(c2)-c2cc(ccc2O)[C@H](N(C)C(=O)[C@H](CCCCN)NC(=O)c2ccc(-c3ccc(Cl)cc3)cc2)C(=O)N[C@@H](C)C(=O)N1)C(=O)N[C@@H]1CCNC1=O [Compound 137] | 8 (≈ 8.8 µM) | 32 (≈ 35.2 µM) | 32 (≈ 35.2 µM) | – | – | –
C[C@@H]1NC(=O)[C@@H](N(C)C(=O)[C@H](CCCCN)NC(=O)c2ccc(-c3ccc(Cl)cc3)cc2)c2ccc(OCCN)c(c2)-c2cc(ccc2OCCN)C[C@@H](C(=O)NCB(O)O)NC1=O [Compound 311] | – | – | 0.19 (≈ 0.211 µM) | 0.13 (≈ 0.145 µM) | 1.5 (≈ 1.67 µM) | –
